Eight compounds from PubChem BioAssay (NCI) can be followed below.

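Briefly, cells in 96-well plates were exposed to five compound concentrations for 48 h, and endpoints were estimated by linear interpolation. Abbreviation: GI50, concentration required for 50% inhibition of growth. The concentration for full growth arrest is given as TGI.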

Some test systems named below: PC-3 prostate; MDA-MB-231 breast; MDA-MB-435; IGROV1 ovarian; RXF 393 renal; SNB-75 CNS; OVCAR-4 ovarian; NCI/ADR-RES ovarian; KM20L2 colon; DMS 273 small cell lung; DLD-1 colon; M19-MEL melanoma.
Assay in all cases: NCI tumour cell line growth inhibition, 48 h

Consider `CCCCCCCCCCCCCCCCCCOc1ccccc1COP(=O)(O)OOCC[N+](C)(C)C`, for which the GI50 in the assay on PC-3 prostate is 0.824 µM; with MDA-MB-231 breast, 0.932 µM; in the assay with MDA-MB-435, 2.65 µM; in the assay on IGROV1 ovarian, 0.738 µM; in the assay on RXF 393 renal, 0.911 µM; with SNB-75 CNS it was 0.96 µM. Further, the GI50 in the assay on OVCAR-4 ovarian was 1.33 µM; with NCI/ADR-RES ovarian it was 6.59 µM. Moreover, the TGI with PC-3 prostate turned out to be 1.8 µM; in the assay on MDA-MB-231 breast it was 2.26 µM; in the assay on MDA-MB-435, 12.3 µM; in the assay with IGROV1 ovarian, 1.5 µM; in the assay with RXF 393 renal it was 1.96 µM; in the assay with SNB-75 CNS it was 3.51 µM. Also, the TGI stood at 9.92 µM in the assay with OVCAR-4 ovarian and 20.6 µM with NCI/ADR-RES ovarian.
For `O=C1OC(c2ccccc2Br)=N/C1=C/c1ccccc1`, the TGI was more than 100 µM with PC-3 prostate; 89.8 µM with MDA-MB-231 breast; 93.7 µM in the assay with MDA-MB-435; more than 100 µM with IGROV1 ovarian; more than 100 µM in the assay on SNB-75 CNS; more than 100 µM with OVCAR-4 ovarian.
For `COC(=O)Cc1c(C2C(CC(=O)OC)c3ccccc3N2C2OC(CO)C(O)C(O)C2O)[nH]c2ccccc12` (configuration not stated), the TGI with PC-3 prostate, in the assay with MDA-MB-231 breast, in the assay with MDA-MB-435, in the assay on IGROV1 ovarian, with SNB-75 CNS and in the assay with OVCAR-4 ovarian was more than 100 µM in each case.
In the case of `NC(CSCSCC(N)C(=O)O)C(=O)O` (configuration not stated), the TGI in the assay on KM20L2 colon, with DMS 273 small cell lung, in the assay with IGROV1 ovarian, in the assay on RXF 393 renal, in the assay with SNB-75 CNS and in the assay on OVCAR-4 ovarian was more than 225 µM in each case. Further, the TGI in the assay with DLD-1 colon is more than 225 µM; in the assay on NCI/ADR-RES ovarian it was more than 104 µM; with M19-MEL melanoma, more than 225 µM.
`CC(C)(C)CI`: the TGI in the assay with KM20L2 colon was more than 100 µM; in the assay with DMS 273 small cell lung, 34.8 µM; with IGROV1 ovarian, more than 100 µM; in the assay with RXF 393 renal it was 33.7 µM; in the assay on SNB-75 CNS, 67.6 µM; in the assay on DLD-1 colon, more than 100 µM. The TGI in the assay with M19-MEL melanoma stood at 53.9 µM.
As to `O=c1oc2ccccc2n1P(=O)(Oc1ccc(Cl)cc1)n1c(=O)oc2ccccc21`, the TGI in the assay on KM20L2 colon, with DMS 273 small cell lung, in the assay with IGROV1 ovarian, with RXF 393 renal, in the assay on SNB-75 CNS and with OVCAR-4 ovarian was more than 100 µM each time. Further, the TGI in the assay on DLD-1 colon and with M19-MEL melanoma was more than 100 µM throughout.
For `C#CCNC(=O)CC[C@@H](C)[C@H]1CC[C@H]2[C@@H]3CC[C@@H]4CC(=O)CC[C@]4(C)[C@H]3CC[C@]12C`, the GI50 is 2.91 µM in the assay with PC-3 prostate; 16.5 µM in the assay on MDA-MB-231 breast; 18.7 µM in the assay on MDA-MB-435; 0.649 µM in the assay on IGROV1 ovarian; 14 µM in the assay with RXF 393 renal; 10.9 µM with SNB-75 CNS. The GI50 in the assay with OVCAR-4 ovarian is 14.9 µM; in the assay on NCI/ADR-RES ovarian, 16.9 µM. Also, the TGI came to 24.2 µM with PC-3 prostate; 38.9 µM with MDA-MB-231 breast; 60.1 µM in the assay with MDA-MB-435; 3.13 µM in the assay on IGROV1 ovarian; 31.7 µM in the assay on RXF 393 renal; 33.5 µM with SNB-75 CNS. Moreover, the TGI in the assay with OVCAR-4 ovarian was determined as 52.6 µM; with NCI/ADR-RES ovarian it was 45.3 µM.
As for `CC1OC(CO)(n2cnc3c(N)ncnc32)C(O)C1O` (configuration not stated), the TGI in the assay with KM20L2 colon, in the assay on DMS 273 small cell lung, in the assay with IGROV1 ovarian, in the assay with RXF 393 renal, in the assay on SNB-75 CNS and in the assay on OVCAR-4 ovarian was more than 100 µM each time. Further, the TGI with DLD-1 colon, in the assay on NCI/ADR-RES ovarian and in the assay with M19-MEL melanoma was more than 100 µM throughout.
